The source made the active and inactive calls. The calls are words filed in the database; no cut-off is given here.
Experiments:
MDA-MB-231 [1] = experiment: Cytotoxicity against human MDA-MB-231 cells; assay type: functional, cell-based
[2] = biological target: Exportin-1 (Homo sapiens) (UniProt O14980); experiment: Inhibition of CRM1-mediated nuclear export of Rio2 in human HeLa cells at 1 uM; assay type: cell-based
MDA-MB-231 [3] = experiment: Induction of apoptosis in human MDA-MB-231 cells; assay type: functional, cell-based
[4] = biological target: Exportin-1 (Homo sapiens) (UniProt O14980); experiment: Inhibition of CRM1-mediated nuclear export of Rio2 in human HeLa cells at 2 uM; assay type: cell-based

Exportin-1 (Homo sapiens), sequence (O14980 whole entry): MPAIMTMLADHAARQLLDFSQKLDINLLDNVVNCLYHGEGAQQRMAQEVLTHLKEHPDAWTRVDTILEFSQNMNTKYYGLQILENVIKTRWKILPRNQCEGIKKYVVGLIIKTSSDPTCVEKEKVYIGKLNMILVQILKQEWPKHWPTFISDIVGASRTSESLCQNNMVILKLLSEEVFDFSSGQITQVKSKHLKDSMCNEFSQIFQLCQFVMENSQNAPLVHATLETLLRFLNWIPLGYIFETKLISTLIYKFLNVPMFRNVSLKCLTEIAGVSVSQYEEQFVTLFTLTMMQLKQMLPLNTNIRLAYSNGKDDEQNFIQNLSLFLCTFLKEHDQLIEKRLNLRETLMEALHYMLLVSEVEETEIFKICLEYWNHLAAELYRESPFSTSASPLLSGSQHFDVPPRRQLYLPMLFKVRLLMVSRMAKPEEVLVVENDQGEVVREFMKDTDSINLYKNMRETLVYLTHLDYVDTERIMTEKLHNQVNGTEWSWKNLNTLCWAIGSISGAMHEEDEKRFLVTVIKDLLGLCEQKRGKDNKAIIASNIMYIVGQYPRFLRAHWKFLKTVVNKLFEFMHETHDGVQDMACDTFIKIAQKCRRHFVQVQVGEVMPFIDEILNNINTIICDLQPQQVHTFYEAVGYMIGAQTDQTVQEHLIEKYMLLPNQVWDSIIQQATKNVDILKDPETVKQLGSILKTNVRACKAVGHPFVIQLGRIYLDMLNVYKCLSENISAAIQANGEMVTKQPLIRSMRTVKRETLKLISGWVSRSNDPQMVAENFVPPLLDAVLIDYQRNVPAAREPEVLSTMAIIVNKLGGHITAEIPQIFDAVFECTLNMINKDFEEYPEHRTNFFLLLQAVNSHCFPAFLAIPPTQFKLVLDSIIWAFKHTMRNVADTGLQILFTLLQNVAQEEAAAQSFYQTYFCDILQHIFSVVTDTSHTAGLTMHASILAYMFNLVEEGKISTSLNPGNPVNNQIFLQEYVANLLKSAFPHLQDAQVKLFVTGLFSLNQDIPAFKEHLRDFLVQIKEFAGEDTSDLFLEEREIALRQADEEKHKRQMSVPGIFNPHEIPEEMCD

Structure (SMILES)	IC50 (MDA-MB-231 [1]) [µM]	inhibition [2]	Activity (MDA-MB-231 [3])	inhibition [4]
O=C1C=CC[C@H](/C=C/c2ccccc2)O1 [GONIOTHALAMIN]	1.46	Active	Active	–
O=C1C=CC[C@H](c2ccccc2)O1	–	–	–	inactive
O=C1C=CC[C@H](Cc2ccccc2)O1	–	–	–	inactive
O=C1C=CC[C@H](C#C/C=C/c2ccccc2)O1	–	–	–	inactive
O=C1C=CC[C@H](c2ccc(-c3ccccc3)cc2)O1	–	–	–	inactive
